Series [1] in a line: Selectivity for human glucocorticoid receptor over ERbeta.
Series [2] has as its system Mus musculus. Briefly: Antiinflammatory activity in mouse assessed as reduction of LPS-stimulated TNFalpha expression at 30 mg/kg relative to control. It counts as functional, organism-based. Further details: dose 30 mg/kg.
Series [3] in a line: Inhibition of ATP-sensitive potassium channel at 1 uM.
Series [4] deals with T1, Adenosine receptor A1 (Homo sapiens) (UniProt P30542).
T1 sequence (whole entry): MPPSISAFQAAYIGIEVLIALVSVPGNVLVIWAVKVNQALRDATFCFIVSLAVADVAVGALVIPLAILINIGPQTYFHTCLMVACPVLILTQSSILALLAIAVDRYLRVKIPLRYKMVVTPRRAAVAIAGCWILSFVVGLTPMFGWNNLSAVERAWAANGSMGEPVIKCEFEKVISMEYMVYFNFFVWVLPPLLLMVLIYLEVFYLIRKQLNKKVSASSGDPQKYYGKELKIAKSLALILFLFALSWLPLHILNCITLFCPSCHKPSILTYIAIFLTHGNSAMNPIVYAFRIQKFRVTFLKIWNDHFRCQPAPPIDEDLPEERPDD
Briefly: Inhibition of adenosine A1 receptor at 1 uM.

Series [5] is described as follows: Inhibition of rolipram binding site at 1 uM.
Series [6] in a line: Selectivity for human glucocorticoid receptor over ERalpha.
A short description of series [7]: Inhibition of nicotinic acetylcholine receptor at 1 uM.
The target of series [8] is Prostaglandin E2 receptor EP4 subtype (Homo sapiens) (UniProt P35408). Briefly: Inhibition of prostanoid EP4 receptor at 1 uM.
A short description of series [9]: Inhibition of sodium channel site 2 at 1 uM.
Series [10] has as its target D(2) dopamine receptor (Homo sapiens) (UniProt P14416). Briefly: Inhibition of dopamine D2S receptor at 1 uM.
Series [11] in a line: Inhibition of nicotinic bungarotoxin-sensitive acetylcholine receptor at 1 uM.
The target of series [12] is Histamine H1 receptor (Homo sapiens) (UniProt P35367). Nature of the series: Inhibition of histamine H1 receptor at 1 uM.
Histamine H1 receptor (Homo sapiens), sequence (P35367 whole entry): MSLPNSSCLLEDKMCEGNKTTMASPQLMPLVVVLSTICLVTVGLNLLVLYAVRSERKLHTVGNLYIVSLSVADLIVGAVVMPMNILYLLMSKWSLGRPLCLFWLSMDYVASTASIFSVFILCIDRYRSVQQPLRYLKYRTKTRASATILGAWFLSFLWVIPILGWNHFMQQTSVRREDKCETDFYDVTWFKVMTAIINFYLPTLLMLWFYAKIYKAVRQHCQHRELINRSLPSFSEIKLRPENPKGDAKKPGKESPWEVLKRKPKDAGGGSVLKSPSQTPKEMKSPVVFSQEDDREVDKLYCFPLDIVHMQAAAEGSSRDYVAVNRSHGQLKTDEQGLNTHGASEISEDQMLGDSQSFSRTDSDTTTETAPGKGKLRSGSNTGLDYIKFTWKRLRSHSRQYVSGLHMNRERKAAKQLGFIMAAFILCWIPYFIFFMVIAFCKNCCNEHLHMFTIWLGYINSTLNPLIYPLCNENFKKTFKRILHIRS
Series [13] is described as follows: Selectivity for human glucocorticoid receptor over androgen receptor.
The target in series [14] is Beta-1 adrenergic receptor (Homo sapiens) (UniProt P08588). Briefly: Inhibition of adrenergic beta-1 receptor at 1 uM.
Series [15] addresses Sodium-dependent noradrenaline transporter (Homo sapiens) (UniProt P23975). Briefly: Inhibition of norepinephrine transporter at 1 uM.
Series [16] deals with D(1A) dopamine receptor (Homo sapiens) (UniProt P21728). Nature of the series: Inhibition of dopamine D1 receptor at 1 uM.
In series [17] the target is Sigma non-opioid intracellular receptor 1 (Homo sapiens) (UniProt Q99720). Nature of the series: Inhibition of sigma 1 receptor at 1 uM.
Series [18] can be described thus: Inhibition of central imidazoline I2 receptor at 1 uM.
In series [19] the target is Muscarinic acetylcholine receptor M3 (Homo sapiens) (UniProt P20309). Briefly: Inhibition of muscarinic M3 receptor at 1 uM.
Muscarinic acetylcholine receptor M3 (Homo sapiens), sequence (P20309 whole entry, looked up): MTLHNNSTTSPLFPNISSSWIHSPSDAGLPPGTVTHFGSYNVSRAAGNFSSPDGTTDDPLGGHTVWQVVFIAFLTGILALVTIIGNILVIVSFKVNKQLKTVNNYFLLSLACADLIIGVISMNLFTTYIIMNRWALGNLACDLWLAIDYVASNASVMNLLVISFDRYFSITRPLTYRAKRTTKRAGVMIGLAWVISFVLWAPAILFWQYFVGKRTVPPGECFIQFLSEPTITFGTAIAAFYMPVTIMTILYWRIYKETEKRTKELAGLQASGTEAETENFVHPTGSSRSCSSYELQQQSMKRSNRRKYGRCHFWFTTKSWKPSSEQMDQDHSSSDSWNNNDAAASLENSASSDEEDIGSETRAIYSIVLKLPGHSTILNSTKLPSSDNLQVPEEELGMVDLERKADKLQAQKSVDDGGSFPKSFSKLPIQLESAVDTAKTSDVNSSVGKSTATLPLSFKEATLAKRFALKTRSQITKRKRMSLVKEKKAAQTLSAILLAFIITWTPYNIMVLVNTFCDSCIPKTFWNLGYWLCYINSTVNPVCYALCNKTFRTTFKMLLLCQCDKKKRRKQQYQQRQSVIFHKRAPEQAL
In series [20] the target is T2, Alpha-2A adrenergic receptor (Homo sapiens) (UniProt P08913).
T2 sequence (whole entry): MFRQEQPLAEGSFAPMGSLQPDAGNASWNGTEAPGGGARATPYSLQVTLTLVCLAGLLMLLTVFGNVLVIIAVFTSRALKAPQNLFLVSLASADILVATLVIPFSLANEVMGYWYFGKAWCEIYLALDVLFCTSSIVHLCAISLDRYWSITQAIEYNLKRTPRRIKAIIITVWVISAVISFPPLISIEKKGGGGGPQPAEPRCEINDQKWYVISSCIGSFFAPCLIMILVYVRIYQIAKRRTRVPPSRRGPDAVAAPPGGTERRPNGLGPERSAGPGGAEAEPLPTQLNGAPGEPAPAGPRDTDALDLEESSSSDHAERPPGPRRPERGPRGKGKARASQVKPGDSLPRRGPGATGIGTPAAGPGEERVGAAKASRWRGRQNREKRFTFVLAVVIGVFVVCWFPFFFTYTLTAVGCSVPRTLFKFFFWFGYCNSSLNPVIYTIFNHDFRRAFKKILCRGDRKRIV
Briefly: Inhibition of adrenergic alpha2A receptor at 1 uM.

Series [21] has as its target Adenosine receptor A2a (Homo sapiens) (UniProt P29274). Nature of the series: Inhibition of adenosine A2A receptor at 1 uM.
Series [22] in a line: Inhibition of NMDA receptor at 1 uM.
The target in series [23] is Beta-2 adrenergic receptor (Homo sapiens) (UniProt P07550). Briefly: Inhibition of adrenergic beta2 receptor at 1 uM.
The target of series [24] is T3, Muscarinic acetylcholine receptor M2 (Homo sapiens) (UniProt P08172).
T3 sequence (whole entry): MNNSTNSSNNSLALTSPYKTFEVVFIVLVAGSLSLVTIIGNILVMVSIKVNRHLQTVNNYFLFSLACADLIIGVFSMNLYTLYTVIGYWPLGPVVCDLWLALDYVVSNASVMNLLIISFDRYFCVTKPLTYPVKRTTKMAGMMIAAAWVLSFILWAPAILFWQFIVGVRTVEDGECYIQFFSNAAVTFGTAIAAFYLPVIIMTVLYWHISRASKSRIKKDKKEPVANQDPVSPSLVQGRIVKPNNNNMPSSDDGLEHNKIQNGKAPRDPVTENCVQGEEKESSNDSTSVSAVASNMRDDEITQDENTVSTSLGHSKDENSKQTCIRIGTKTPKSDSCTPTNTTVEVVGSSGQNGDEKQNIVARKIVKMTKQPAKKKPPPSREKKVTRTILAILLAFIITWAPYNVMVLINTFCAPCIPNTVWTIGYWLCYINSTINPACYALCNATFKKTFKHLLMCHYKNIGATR
Nature of the series: Inhibition of muscarinic M2 receptor at 1 uM.

In series [25] the target is T4, Alpha-1B adrenergic receptor (Homo sapiens) (UniProt P35368).
T4 sequence (whole entry): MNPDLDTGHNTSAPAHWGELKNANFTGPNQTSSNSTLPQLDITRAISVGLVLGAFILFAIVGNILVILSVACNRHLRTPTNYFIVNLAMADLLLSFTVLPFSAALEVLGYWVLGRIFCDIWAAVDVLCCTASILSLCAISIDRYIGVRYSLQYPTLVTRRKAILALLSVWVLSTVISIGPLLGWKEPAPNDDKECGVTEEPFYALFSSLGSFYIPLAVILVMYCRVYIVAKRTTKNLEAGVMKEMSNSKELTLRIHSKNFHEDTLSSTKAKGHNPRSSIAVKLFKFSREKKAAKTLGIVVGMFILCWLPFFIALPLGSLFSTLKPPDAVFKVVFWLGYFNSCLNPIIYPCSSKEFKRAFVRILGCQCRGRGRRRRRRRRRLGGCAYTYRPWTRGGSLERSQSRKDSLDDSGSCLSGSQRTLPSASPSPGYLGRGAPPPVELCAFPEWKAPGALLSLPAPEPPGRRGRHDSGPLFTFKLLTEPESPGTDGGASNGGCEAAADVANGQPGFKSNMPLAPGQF
Briefly: Inhibition of adrenergic Alpha-1B receptor at 1 uM.

Series [26] deals with Mu-type opioid receptor (Homo sapiens) (UniProt P35372). Nature of the series: Inhibition of mu opioid receptor at 1 uM.
Series [27] is described as follows: Inhibition of GABAA receptor agonist site at 1 uM. It counts as functional.
Series [28] can be described thus: Inhibition of phencyclidine receptor at 1 uM.
Series [29] can be described thus: Selectivity for human glucocorticoid receptor over progesterone receptor.
Series [30] is described as follows: Inhibition of central benzodiazepine receptor at 1 uM.
Series [31] is described as follows: Inhibition of calcium channel L type dihydropyridine binding site at 1 uM.
Series [32] in a line: Inhibition of phorbol ester site of PKC at 1 uM.
The target of series [33] is T5, Alpha-1A adrenergic receptor (Homo sapiens) (UniProt P35348).
T5 sequence (whole entry): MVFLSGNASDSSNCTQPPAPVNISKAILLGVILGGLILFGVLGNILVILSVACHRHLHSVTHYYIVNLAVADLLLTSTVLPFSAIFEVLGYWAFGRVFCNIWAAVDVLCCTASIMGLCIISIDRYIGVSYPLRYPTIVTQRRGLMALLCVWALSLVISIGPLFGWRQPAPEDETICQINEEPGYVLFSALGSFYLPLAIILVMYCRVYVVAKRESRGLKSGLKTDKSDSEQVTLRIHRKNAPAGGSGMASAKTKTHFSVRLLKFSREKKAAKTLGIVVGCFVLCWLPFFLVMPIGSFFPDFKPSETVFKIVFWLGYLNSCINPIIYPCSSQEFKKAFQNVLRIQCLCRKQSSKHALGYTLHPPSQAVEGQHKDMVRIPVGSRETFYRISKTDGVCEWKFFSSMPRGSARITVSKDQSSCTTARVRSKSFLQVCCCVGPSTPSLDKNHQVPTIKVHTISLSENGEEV
Briefly: Inhibition of adrenergic alpha1A receptor at 1 uM.

Series [34] can be described thus: Inhibition of sigma 2 receptor at 1 uM.
In series [35] the target is T6, Glucocorticoid receptor (Homo sapiens, UniProt P04150).
T6 sequence (P04150 whole entry): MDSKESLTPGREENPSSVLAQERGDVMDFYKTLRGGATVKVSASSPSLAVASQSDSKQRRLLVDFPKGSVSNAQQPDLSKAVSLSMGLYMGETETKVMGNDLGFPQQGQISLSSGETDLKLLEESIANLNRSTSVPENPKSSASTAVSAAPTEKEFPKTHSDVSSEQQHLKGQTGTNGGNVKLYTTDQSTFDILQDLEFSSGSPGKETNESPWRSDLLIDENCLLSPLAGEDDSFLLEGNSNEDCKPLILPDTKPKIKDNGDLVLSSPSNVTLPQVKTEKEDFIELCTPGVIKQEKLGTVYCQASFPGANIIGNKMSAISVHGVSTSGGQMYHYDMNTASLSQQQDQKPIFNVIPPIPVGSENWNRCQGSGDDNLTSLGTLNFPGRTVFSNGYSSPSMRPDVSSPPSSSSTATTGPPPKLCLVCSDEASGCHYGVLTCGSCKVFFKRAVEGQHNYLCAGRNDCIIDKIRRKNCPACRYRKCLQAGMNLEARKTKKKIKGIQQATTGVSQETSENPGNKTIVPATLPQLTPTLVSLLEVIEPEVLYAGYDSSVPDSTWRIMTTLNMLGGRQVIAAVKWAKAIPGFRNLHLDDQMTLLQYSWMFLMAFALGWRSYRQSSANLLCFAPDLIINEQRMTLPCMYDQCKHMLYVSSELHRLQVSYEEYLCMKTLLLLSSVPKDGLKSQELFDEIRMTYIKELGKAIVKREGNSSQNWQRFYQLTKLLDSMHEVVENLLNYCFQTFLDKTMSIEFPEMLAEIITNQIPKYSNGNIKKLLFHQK
Nature of the series: Agonist activity at glucocorticoid receptor in human MDA-kb2 cells transfected with MMTV-LUC assessed as induction of MMTV-LTR/promoter linked LUC gene by luciferase transactivation assay. To be noted: read-out: EC50. It counts as functional, cell-based.

In series [36] the target is hERG (KCNH2) (Homo sapiens, UniProt Q12809). Nature of the series: Inhibition of human ERG at 1 uM.
hERG (KCNH2), sequence (Q12809 whole entry): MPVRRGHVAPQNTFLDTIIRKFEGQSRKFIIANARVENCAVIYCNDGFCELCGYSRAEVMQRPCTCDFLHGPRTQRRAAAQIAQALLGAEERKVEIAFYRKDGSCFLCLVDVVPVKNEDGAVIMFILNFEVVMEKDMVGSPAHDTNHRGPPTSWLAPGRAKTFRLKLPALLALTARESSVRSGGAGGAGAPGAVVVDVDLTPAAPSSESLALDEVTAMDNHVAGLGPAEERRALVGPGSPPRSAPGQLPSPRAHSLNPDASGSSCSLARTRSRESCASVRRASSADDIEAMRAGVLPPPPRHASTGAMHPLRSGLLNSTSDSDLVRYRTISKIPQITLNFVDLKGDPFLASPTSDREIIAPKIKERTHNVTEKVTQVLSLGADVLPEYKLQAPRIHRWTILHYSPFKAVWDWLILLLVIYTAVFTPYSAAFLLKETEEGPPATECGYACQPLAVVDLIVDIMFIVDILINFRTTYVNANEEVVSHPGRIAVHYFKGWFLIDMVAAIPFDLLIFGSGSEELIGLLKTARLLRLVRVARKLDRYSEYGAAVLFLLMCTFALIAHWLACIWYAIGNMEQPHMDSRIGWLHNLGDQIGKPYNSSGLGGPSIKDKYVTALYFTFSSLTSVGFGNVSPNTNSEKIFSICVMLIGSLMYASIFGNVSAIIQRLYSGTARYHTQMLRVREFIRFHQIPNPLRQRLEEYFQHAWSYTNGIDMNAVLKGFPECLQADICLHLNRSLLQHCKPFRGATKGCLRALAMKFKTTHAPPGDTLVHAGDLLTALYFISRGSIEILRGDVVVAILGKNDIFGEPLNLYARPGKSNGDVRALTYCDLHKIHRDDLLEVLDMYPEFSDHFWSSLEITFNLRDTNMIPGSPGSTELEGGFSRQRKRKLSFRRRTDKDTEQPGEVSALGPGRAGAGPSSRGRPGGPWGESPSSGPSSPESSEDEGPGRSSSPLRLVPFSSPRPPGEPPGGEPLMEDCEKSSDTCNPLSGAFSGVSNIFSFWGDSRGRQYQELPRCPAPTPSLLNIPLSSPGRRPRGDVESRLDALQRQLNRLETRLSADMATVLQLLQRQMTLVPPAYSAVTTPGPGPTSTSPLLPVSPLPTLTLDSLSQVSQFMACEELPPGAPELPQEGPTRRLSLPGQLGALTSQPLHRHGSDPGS
For series [37], the target named is T6, Glucocorticoid receptor.
Description: Binding affinity to human glucocorticoid receptor by fluorescence polarization competitive binding assay
The subject of series [38] is Mus musculus. Briefly: Antiinflammatory activity in mouse assessed as reduction of LPS-stimulated TNFalpha expression at 60 mg/kg relative to control. Details: scale not given: the % may be the effect or the level left. It counts as functional.
For series [39], the system named is Mus musculus. Nature of the series: Antiinflammatory activity in mouse assessed as reduction of LPS-stimulated TNFalpha expression at 6 mg/kg relative to control. Details: scale not given: the % may be the effect or the level left. Format: functional.
Series [40] deals with Voltage-gated inwardly rectifying potassium channel KCNH2 (Homo sapiens, UniProt Q12809). Briefly: Inhibition of human ERG by patch clamp method. Background: In patch-clamp work, channel activity is measured electrically.
Voltage-gated inwardly rectifying potassium channel KCNH2, sequence (Q12809 whole entry): as above
Series [41] deals with T6, Glucocorticoid receptor. Nature of the series: Agonist activity at glucocorticoid receptor in human fibroblast assessed as inhibition of IL-1-beta-induced IL6 production treated 1 hr before IL1-beta challenge measured after 24 hrs by transrepression assay. It counts as functional.
In series [42] the test system is Mus musculus. Briefly: Antiinflammatory activity in mouse assessed as reduction of LPS-stimulated TNFalpha expression at 3 mg/kg relative to control. It counts as functional. Further details: scale not given: the % may be the effect or the level left.

Molecules are shown by their SMILES. The source made the active and inactive calls. The calls are words filed in the database; no cut-off is given here.

D(2) dopamine receptor (Homo sapiens), sequence (P14416 whole entry): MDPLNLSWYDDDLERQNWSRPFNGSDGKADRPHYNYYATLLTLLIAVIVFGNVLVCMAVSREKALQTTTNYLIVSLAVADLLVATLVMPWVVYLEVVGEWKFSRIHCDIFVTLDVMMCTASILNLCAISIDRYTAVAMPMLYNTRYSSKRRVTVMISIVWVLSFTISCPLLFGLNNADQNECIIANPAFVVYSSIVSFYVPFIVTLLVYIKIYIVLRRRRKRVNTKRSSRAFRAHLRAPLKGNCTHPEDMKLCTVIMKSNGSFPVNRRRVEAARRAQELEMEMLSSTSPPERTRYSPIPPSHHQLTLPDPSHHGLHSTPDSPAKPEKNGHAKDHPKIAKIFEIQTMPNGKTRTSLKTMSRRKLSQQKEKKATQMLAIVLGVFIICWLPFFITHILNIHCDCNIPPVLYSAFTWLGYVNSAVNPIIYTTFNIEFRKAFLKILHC
Adenosine receptor A2a (Homo sapiens), sequence (P29274 whole entry): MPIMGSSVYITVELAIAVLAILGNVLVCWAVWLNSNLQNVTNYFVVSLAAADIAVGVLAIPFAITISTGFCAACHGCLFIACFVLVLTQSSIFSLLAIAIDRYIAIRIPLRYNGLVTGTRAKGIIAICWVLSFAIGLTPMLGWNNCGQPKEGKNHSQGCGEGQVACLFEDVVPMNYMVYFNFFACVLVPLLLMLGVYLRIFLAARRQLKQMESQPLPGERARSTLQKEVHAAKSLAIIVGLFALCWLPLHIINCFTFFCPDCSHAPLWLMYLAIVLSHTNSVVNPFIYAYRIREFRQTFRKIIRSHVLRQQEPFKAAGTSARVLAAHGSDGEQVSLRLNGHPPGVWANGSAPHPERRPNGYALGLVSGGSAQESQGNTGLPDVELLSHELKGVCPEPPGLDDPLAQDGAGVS
Sodium-dependent noradrenaline transporter (Homo sapiens), sequence (P23975 whole entry): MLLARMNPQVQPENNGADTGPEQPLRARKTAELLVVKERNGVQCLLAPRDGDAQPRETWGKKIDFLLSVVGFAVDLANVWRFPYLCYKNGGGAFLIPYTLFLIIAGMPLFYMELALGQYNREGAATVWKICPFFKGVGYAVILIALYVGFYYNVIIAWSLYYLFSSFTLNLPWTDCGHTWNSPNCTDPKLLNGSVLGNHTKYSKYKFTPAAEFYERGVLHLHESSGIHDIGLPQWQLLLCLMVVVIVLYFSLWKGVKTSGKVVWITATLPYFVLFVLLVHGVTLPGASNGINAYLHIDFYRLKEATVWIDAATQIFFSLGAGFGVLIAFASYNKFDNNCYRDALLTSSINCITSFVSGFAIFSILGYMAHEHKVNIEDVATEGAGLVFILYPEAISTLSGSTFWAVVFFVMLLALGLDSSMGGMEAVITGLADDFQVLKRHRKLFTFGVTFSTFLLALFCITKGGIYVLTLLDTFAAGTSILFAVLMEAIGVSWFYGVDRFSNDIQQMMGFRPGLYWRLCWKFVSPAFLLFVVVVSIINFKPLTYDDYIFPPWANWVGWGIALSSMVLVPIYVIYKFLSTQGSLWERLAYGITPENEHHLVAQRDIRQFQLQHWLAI

As to `OC(c1ccc2c(cnn2-c2ccc(F)cc2)c1)(c1cccc(Cl)c1Cl)C(F)(F)F` (single isomer, unassigned; (+)), the Ratio in [1], in [6], in [13] and in series [29] was greater than 1000 in each case. In addition, in [2], the result was Active. For the same compound, the inhibition in series [3], in series [4], in [5], in [7], in series [8] and in series [9] was less than 50% throughout. The inhibition in [10], in series [11], in [12], in [14], in series [15] and in series [16] was less than 50% each time. The inhibition in series [17], in [18], in [19], in [20], in series [21] and in series [22] was less than 50% each time. The inhibition in series [23], in [24], in [25], in [26], in series [27] and in [28] was less than 50% throughout. The inhibition in [30], in [31], in series [32], in series [33] and in series [34] was less than 50% each time.

`OC(c1ccc2c(cnn2-c2ccc(F)cc2)c1)(c1cccc(Cl)c1Cl)C(F)(F)F` (single isomer, unassigned; (+)) [1-(2,3-DICHLOROPHENYL)-2,2,2-TRIFLUORO-1-(1-(4-FLUOROPHENYL)-1H-INDAZOL-5-YL)ETHANOL (ENANTIOMERIC MIX)]: the EC50 in series [35] stood at 350 nM; in [41] it was 19 nM. This compound also gave an inhibition at 1 µM in series [36] of less than 50%. Besides, the values for the IC50 in series [37] and in [40] were 34 nM and greater than 10000 nM, respectively. Also, the Activity in series [38] amounted to 68%; in [39], 50%; in series [42] it was 25%.

Usually inhibition stands for the percentage by which the read-out fell short of the control. By EC50 is commonly meant the midpoint of the concentration-response curve. A word on the IC50: it is the concentration needed to halve the response being measured.
